Results from US20050245399A1, “Pyrazole derivatives as herbicidal compositions containing them” (ISHIHARA SANGYO KAISHA, LTD., priority 2004, published 2005).

Key:
Assay type in all cases: in vivo
[1] = tested on: velvetleaf (Abutilon theophrasti): ABUTH; test: Test Example 1 pre-emergence herbicidal activity, ABUTH; conditions: visually observed 20th to 23rd day after application
Source text: (§1) Upland field soil was put into a 1/170,000 ha pot, and seeds of various plants {1. barnyardgrass (Echinochloa crus-galli L.): ECHCG, 2. crabgrass (Digitaria sanguinalis L.): DIGSA, 3. green foxtail (Setaria viridis L.): SETVI, 4. redroot pigweed (Amaranthus retroflexus L.): AMARE, 5. prickly sida (Sida spinosa L.): SEDSP, 6. velvetleaf (Abutilon theophrasti): ABUTH, 7. common cocklebur (Xanthium strumarium L.): XANST, 8. rice (Oryza sativa L.): ORYSA, 9. wheat (Triticum aestivum L.): TRZAX, 10. corn (Zea mays L.): ZEAMX, 11. soybean (Glycine max Merr.): GLXMA} were sown. Then, one day after the sowing, a wettable powder or emulsifiable concentrate having the compound of the present invention formulated in accordance with a usual formulation method, was weighed so that the active ingredient would be a predetermined amount and diluted with water in an amount of 500 L/ha. The herbicide adjusted was applied by a small size sprayer for preemergence treatment. On the 20th to 23rd day after the application of the herbicide, the growth of the respective plants was visually observed, and the herbicidal effects were evaluated by growth controlling degrees (%) ranging from 0 (equivalent to the untreated control) to 100 (complete kill), whereby the results shown in Table 4, were obtained. Compound Nos. in Table 4 correspond to Compound Nos. in Table 1 and 2 given hereinbefore.

[2] = tested on: wheat (Triticum aestivum L.), TRZAX; test: Test Example 2 post-emergence (foliage treatment) herbicidal activity, TRZAX; conditions: 63 g a.i./ha
Source text: (§2) Upland field soil was put into a 1/170,000 ha pot, and seeds of various plants were sown. Then, when the plants reached predetermined leaf stages {1. barnyardgrass (Echinochloa crus-galli L.), ECHCG: 1.1-2.1 leaf stage, 2. crabgrass (Digitaria sanguinalis L.), DIGSA: 1.0-2.0 leaf stage, 3. green foxtail (Setaria viridis L.), SETVI: 1.0-2.2 leaf stage, 4. redroot pigweed (Amaranthus retroflexus L.), AMARE: 0.1-1.5 leaf stage, 5. prickly sida (Sida spinosa L.), SIDSP: 0.1-0.6 leaf stage, 6. velvetleaf (Abutilon theophrasti), ABUTH: 0.1-0.6 leaf stage, 7. common cocklebur (Xanthium strumarium L.), XANST: 0.1 leaf stage, 8. rice (Oryza sativa L.), ORYSA; 1.0-2 leaf stage, 9. wheat (Triticum aestivum L.), TRZAX: 2.3-3.5 leaf stage, 10. corn (Zea mays L.), ZEAMXN 2.1-2.6 leaf stage, 11. soybean (Glycine max Merr.), GLXMA: primary leaf stage}, a wettable powder or emulsifiable concentrate having the compound of the present invention formulated in accordance with a usual formulation method, was weighed so that the active ingredient would be a predetermined amount, and diluted with water in an amount of 500 L/ha. To the diluted solution, 0.1% (v/v) of an agricultural spreader was added. The herbicide adjusted was applied by a small size sprayer for foliage treatment. On the 20th to 23rd day after the application of the herbicide, the growth of the respective plants was visually observed, and the herbicidal effects were evaluated by growth controlling degrees (%) ranging from 0 (equivalent to the untreated control) to 100 (complete kill), whereby the results shown in Table 5, were obtained. Compound Nos. in Table 5 correspond to Compound Nos. in Table 1 and 2 given hereinbefore.

[3] = tested on: barnyardgrass (Echinochloa crus-galli L.): ECHCG; test: Test Example 1 pre-emergence herbicidal activity, ECHCG; conditions: visually observed 20th to 23rd day after application
Source text: as §1

[4] = tested on: velvetleaf (Abutilon theophrasti), ABUTH; test: Test Example 2 post-emergence (foliage treatment) herbicidal activity, ABUTH; conditions: 63 g a.i./ha
Source text: as §2

[5] = tested on: corn (Zea mays L.), ZEAMX; test: Test Example 2 post-emergence (foliage treatment) herbicidal activity, ZEAMX; conditions: 63 g a.i./ha
Source text: as §2

[6] = tested on: barnyardgrass (Echinochloa crus-galli L.), ECHCG; test: Test Example 2 post-emergence (foliage treatment) herbicidal activity, ECHCG; conditions: 63 g a.i./ha
Source text: as §2

[7] = tested on: soybean (Glycine max Merr.), GLXMA; test: Test Example 2 post-emergence (foliage treatment) herbicidal activity, GLXMA; conditions: 63 g a.i./ha
Source text: as §2

[8] = tested on: rice (Oryza sativa L.): ORYSA; test: Test Example 1 pre-emergence herbicidal activity, ORYSA; conditions: visually observed 20th to 23rd day after application
Source text: as §1

[9] = tested on: corn (Zea mays L.): ZEAMX; test: Test Example 1 pre-emergence herbicidal activity, ZEAMX; conditions: visually observed 20th to 23rd day after application
Source text: as §1

[10] = tested on: soybean (Glycine max Merr.): GLXMA; test: Test Example 1 pre-emergence herbicidal activity, GLXMA; conditions: visually observed 20th to 23rd day after application
Source text: as §1

[11] = tested on: green foxtail (Setaria viridis L.): SETVI; test: Test Example 1 pre-emergence herbicidal activity, SETVI; conditions: visually observed 20th to 23rd day after application
Source text: as §1

[12] = tested on: prickly sida (Sida spinosa L.), SIDSP; test: Test Example 2 post-emergence (foliage treatment) herbicidal activity, SIDSP; conditions: 63 g a.i./ha
Source text: as §2

[13] = tested on: prickly sida (Sida spinosa L.): SEDSP; test: Test Example 1 pre-emergence herbicidal activity, SIDSP; conditions: visually observed 20th to 23rd day after application
Source text: as §1

[14] = tested on: wheat (Triticum aestivum L.): TRZAX; test: Test Example 1 pre-emergence herbicidal activity, TRZAX; conditions: visually observed 20th to 23rd day after application
Source text: as §1

[15] = tested on: crabgrass (Digitaria sanguinalis L.), DIGSA; test: Test Example 2 post-emergence (foliage treatment) herbicidal activity, DIGSA; conditions: 63 g a.i./ha
Source text: as §2

[16] = tested on: rice (Oryza sativa L.), ORYSA; test: Test Example 2 post-emergence (foliage treatment) herbicidal activity, ORYSA; conditions: 63 g a.i./ha
Source text: as §2

[17] = tested on: crabgrass (Digitaria sanguinalis L.): DIGSA; test: Test Example 1 pre-emergence herbicidal activity, DIGSA; conditions: visually observed 20th to 23rd day after application
Source text: as §1

[18] = tested on: green foxtail (Setaria viridis L.), SETVI; test: Test Example 2 post-emergence (foliage treatment) herbicidal activity, SETVI; conditions: 63 g a.i./ha
Source text: as §2

[19] = tested on: redroot pigweed (Amaranthus retroflexus L.): AMARE; test: Test Example 1 pre-emergence herbicidal activity, AMARE; conditions: visually observed 20th to 23rd day after application
Source text: as §1

Row | SMILES | Pre-emergence Herbicidal Activity ABUTH (growth controlling degree) ([1]; Rate 63 g a.i./ha) | growth controlling degree, TRZAX [2] | Pre-emergence Herbicidal Activity ECHCG (growth controlling degree) ([3]; Rate 63 g a.i./ha) | growth controlling degree, ABUTH [4] | growth controlling degree, ZEAMX [5] | growth controlling degree, ECHCO [6] | growth controlling degree, GLXMA [7] | Pre-emergence Herbicidal Activity ORYSA (growth controlling degree) ([8]; Rate 63 g a.i./ha) | Pre-emergence Herbicidal Activity ZEAMX (growth controlling degree) ([9]; Rate 63 g a.i./ha) | Pre-emergence Herbicidal Activity GLXMA (growth controlling degree) ([10]; Rate 63 g a.i./ha) | Pre-emergence Herbicidal Activity SETVI (growth controlling degree) ([11]; Rate 63 g a.i./ha) | growth controlling degree, SIDSP [12] | Pre-emergence Herbicidal Activity SIDSP (growth controlling degree) ([13]; Rate 63 g a.i./ha) | Pre-emergence Herbicidal Activity TRZAX (growth controlling degree) ([14]; Rate 63 g a.i./ha) | growth controlling degree, DIGSP [15] | growth controlling degree, ORYSA [16] | Pre-emergence Herbicidal Activity DIGSP (growth controlling degree) ([17]; Rate 63 g a.i./ha) | growth controlling degree, SETVI [18] | Pre-emergence Herbicidal Activity AMARE (growth controlling degree) ([19]; Rate 63 g a.i./ha) | further results
1 | COc1c(Cl)cc(F)c(-c2nn(C)c(OC(F)F)c2Cl)c1NCCOc1ccccc1 [Compound 1-77] | 0% | 30% | 0% | 100% | 60% | 70% | 60% | 0% | 0% | 0% | 10% | 100% | 0% | 0% | 60% | 40% | 0% | 95% |  | 
2 | COc1c(Cl)cc(F)c(-c2nn(C)c(OC(F)F)c2Cl)c1NC(=O)c1ccc2ccccc2c1 [Compound 1-271] |  |  |  |  |  |  |  |  |  |  |  |  |  |  |  |  |  |  |  | Pre-emergence Herbicidal Activity ABUTH (growth controlling degree) ([1]; Rate 125 g a.i./ha): 40%; Pre-emergence Herbicidal Activity ECHCG (growth controlling degree) ([3]; Rate 125 g a.i./ha): 70%; Pre-emergence Herbicidal Activity ORYSA (growth controlling degree) ([8]; Rate 125 g a.i./ha): 60%; Pre-emergence Herbicidal Activity ZEAMX (growth controlling degree) ([9]; Rate 125 g a.i./ha): 20%; Pre-emergence Herbicidal Activity GLXMA (growth controlling degree) ([10]; Rate 125 g a.i./ha): 20%; Pre-emergence Herbicidal Activity SETVI (growth controlling degree) ([11]; Rate 125 g a.i./ha): 90%; Pre-emergence Herbicidal Activity SIDSP (growth controlling degree) ([13]; Rate 125 g a.i./ha): 100%; Pre-emergence Herbicidal Activity AMARE (growth controlling degree) ([19]; Rate 125 g a.i./ha): 100%; Pre-emergence Herbicidal Activity TRZAX (growth controlling degree) ([14]; Rate 125 g a.i./ha): 10%; Pre-emergence Herbicidal Activity DIGSP (growth controlling degree) ([17]; Rate 125 g a.i./ha): 100%
3 | COc1c(Cl)cc(F)c(-c2nn(C)c(OC(F)F)c2Cl)c1NC(=O)C=Cc1cccc(F)c1 [Compound 1-257] | 10% | 50% | 30% | 100% | 30% | 60% | 40% | 20% | 0% | 0% | 10% | 100% | 60% | 0% | 50% | 40% | 10% | 70% | 100% | 
4 | COc1c(Cl)cc(F)c(-c2nn(C)c(OC(F)F)c2Cl)c1NC(=O)C(C)Cc1ccccc1 (stereo not shown) [Compound 1-268] | 80% |  | 40% |  |  |  |  | 30% | 0% | 0% | 80% |  | 70% | 20% |  |  | 100% |  | 100% | 
5 | COc1c(Cl)cc(F)c(-c2nn(C)c(OC(F)F)c2Cl)c1NC(=O)CC(C)(C)C [Compound 1-265] | 100% | 30% | 20% | 95% | 30% | 60% | 50% | 10% | 0% | 0% | 70% | 100% | 100% | 20% | 60% | 40% | 100% | 80% | 100% | 
6 | COc1c(Cl)cc(F)c(-c2nn(C)c(OC(F)F)c2Cl)c1NC(=O)CCc1ccccc1F [Compound 1-269] | 80% |  | 80% |  |  |  |  | 40% | 10% | 0% | 100% |  | 100% | 40% |  |  | 100% |  | 100% | 
7 | COc1c(Cl)cc(F)c(-c2nn(C)c(OC(F)F)c2Cl)c1NC(=O)CCc1cccc(F)c1 [Compound 1-266] | 50% |  | 60% |  |  |  |  | 10% | 0% | 0% | 80% |  | 100% | 40% |  |  | 100% |  | 100% | 
8 | COc1c(Cl)cc(F)c(-c2nn(C)c(OC(F)F)c2Cl)c1NC(=O)CCc1ccc(F)cc1 [Compound 1-267] | 100% |  | 70% |  |  |  |  | 30% | 0% | 0% | 95% |  | 80% | 20% |  |  | 100% |  | 100% | 
